Data set [1] can be described thus: 5-FU plasma pharmacokinetics without and with binimetinib (LC-MS/MS). On the procedure:
Fluorouracil levels in plasma were determined using an LC-MS/MS analytical assay also in the APCF with LLOQ of 3 ng/mL from a 200 μL aliquot of plasma.

The test system of the next data set is MEK1/2. The note with it: preclinical; cited from earlier work.
Details of data set [2]: method as in ref 19–24 = [19]; 19 Sosman JA Kittaneh M Lolkema MP Postow MA Schwartz G Franklin C Matano A Bhansali S Parasuraman S Kim K A phase 1b/2 study of LEE011 in combination with binimetinib (MEK162) in patients with NRAS-m || [20]; 20 Juric D Soria JC Sharma S Banerji U Azaro A Desai J A phase Ib open-label, multicenter, dose-escalation and-expansion study of orally administered binimetinib (MEK162) plus BYL719 in adult patients || [21]; 21 Chi P Qin L D’Angelo SP Dickson MA Gounder MM Keohan ML Shoushtari AN Condy MM Konen T Fruauff A DeMatteo RP Singer S Hwang S A phase Ib/II study of MEK162 (binimetinib [BINI]) in combination with || [22]; 22 Van Herpen C Postow MA Carlino MS Kalkavan H Weise A Amaria RN De Vos F Carvajal RD Matano A Bhansali S Lam L Yerramilli-Rao P Sosman JA A phase 1b/2 study of ribociclib (LEE011; CDK4/6 inhibitor) || [23]; 23 Dummer R Sandhu S Hassel JC Muñoz E Berking C Gesierich A Ascierto PA Esposito O Carter K Antona V Radhakrishnan R Cui X Caponigro G LOGIC2: Phase 2,multi-center, open-label study of sequential enc. The following applies: oral twice daily, continuous dosing; five phase Ib/II trials; cited from earlier work.

For data set [3] the following is noted: human, in vivo, po.
Method: A standard 3 + 3 dose-escalation design was followed using a continuous and intermittent oral binimetinib dosing schedule combined with fixed-dose FOLFOX. […] The continuous binimetinib dosing schedule was comprised of 2 dosing levels: 30 mg orally twice daily and 45 mg orally twice daily continuously starting on day 1 with FOLFOX, repeated every 2 weeks. The MTD of binimetinib continuous daily dosing was explored in an additional 6-patient cohort to investigate potential FOLFOX-binimetinib pharmacokinetic interactions. In addition, the MTD dose of binimetinib was explored further with FOLFOX in an intermittent sequential schedule in order to minimize treatment toxicity, with binimetinib twice daily on days 1–5 with FOLFOX on days 6–7 every 2 weeks. The starting dose of binimetinib on the intermittent arm was the MTD dose level identified on the continuous dosing schedule. Following standard dose-escalation rules, the maximum tolerated dose (MTD) for either schedule was defined as the highest dose level tested in which no more than 1 of 6 patients experienced a dose-limiting toxicity (DLT) in the dose-escalation phase. […] No intra-patient dosing escalations were allowed. No escalation beyond the previous binimetinib monotherapy recommended dose of 45 mg PO BID was allowed. […]
For data set [4] the following is noted: cited from earlier work.
The next data set concerns advanced solid tumors. The following applies: twice daily, cited from earlier work.
Details of data set [5]: method as in ref 25 = [25]; 25 Grisham RN Gordon MS Harb WA Aghajanian C McMeekin DS McKinley K Anderson L Chavira R Christy-Bittel J Barrett E Moore KN A phase Ib dose-escalation study of binimetinib (MEK162) in combination wit. The note with it: orally twice daily, cited from earlier work.
The next data set deals with previously-treated mCRC. Details: method as in ref 34 = [34]; 34 Bendell J Won KT Ean CC Yung-Jue B Lee C Desai J Lewin J Wallin J Das Thakur M Mwawasi G Cha E Infante J Safety and efficacy of cobimetinib (cobi) and atezolizumab (atezo) in a Phase 1b study of me. The note with it: escalating doses of cobimetinib in combination with atezolizumab; 23 patients (4 responders); cited from earlier work.

The conditions of data set [6]: for Oxaliplatin T1/2, Avg STD: Table 4.
Where [7] appears, read: Pt#1, Cycle 1 (without binimetinib).
The mark [8] stands for this setting: Pt#2, Cycle 1 (without binimetinib).
[9] abbreviates: Pt#2, Cycle 2 (with binimetinib).
Setting [10] is: Pt#3, Cycle 1 (without binimetinib).
The mark [11] stands for this setting: Pt#3, Cycle 2 (with binimetinib).
Setting [12] is: Pt#4, Cycle 1 (without binimetinib).
[13] abbreviates: Pt#4, Cycle 2 (with binimetinib).
The mark [14] stands for this setting: Pt#5, Cycle 1 (without binimetinib).
Where [15] appears, read: Pt#5, Cycle 2 (with binimetinib).
The mark [16] stands for this setting: Pt#6, Cycle 2 (with binimetinib).

Structures are written as SMILES. Like-named read-outs stand apart in the source and are kept apart here.

Consider `O=c1[nH]cc(F)c(=O)[nH]1` [5-FU, Fluorouracil], for which the “5-FU steady-state level, Avg STD” value in data set [1] (Cycle 2 (with binimetinib 45 mg BID continuous), plasma, PK cohort) turned out to be 597.6 ± 204.5 ng/mL. Further, the 5-FU steady-state level amounted to 353.0 ng/mL in [1] (setting [7]); 293.1 ng/mL in data set [1] (Pt#1, Cycle 2 (with binimetinib)); 524.0 ng/mL in data set [1] (setting [8]); 480.5 ng/mL in [1] (setting [9]); 627.5 ng/mL in [1] (setting [10]); 718.0 ng/mL in data set [1] (setting [11]). Moreover, the 5-FU steady-state level in [1] (setting [12]) is reported as 427.5 ng/mL; in [1] (setting [13]) it was 770.5 ng/mL; in data set [1] (setting [14]), 621.0 ng/mL; in data set [1] (setting [15]), 726.0 ng/mL; in data set [1] (Pt#6, Cycle 1 (without binimetinib)) it was 428.0 ng/mL. Further, in data set [1] (in vivo), the “Difference in 5-FU PK with vs without binimetinib” value is “no significant differences”.

Consider `Cn1cnc2c(F)c(Nc3ccc(Br)cc3F)c(C(=O)NOCCO)cc21` [binimetinib], for which, in the data set on MEK1/2, the “Inhibition of MEK and downstream phosphorylated ERK (pERK)” value is “nanomolar range”. The “MTD or RP2D of binimetinib in combination with various targeted agents” value in data set [2] is on record as 45 mg. Further, in data set [3], the “MTD of binimetinib in combination with FOLFOX” value was determined as 45 mg. For the same compound, the “Patients with atrial fibrillation” value in data set [4] (in vivo) is 1. Besides, in data set [4] (in vivo), the “Patients with irregular heart rate” value is 1. Further, the “Patients with grade 1–2 retinal adverse events” value in data set [4] (phase II trial, binimetinib 45 mg twice daily, NRAS- or BRAF-mutated advanced melanomas) is 18%. The “Recommended phase II dose (RP2D) of oral binimetinib” value with advanced solid tumors (due to recurrent DLTs of retinal events) is 45 mg. Also, the “MTD of single-agent oral binimetinib” value with advanced solid tumors (pretreated advanced solid tumors, first dose-escalation phase I study) is listed as 60 mg. The “RP2D of binimetinib combined with paclitaxel” value is on record as 30 mg in data set [5] (continuous dosing, paclitaxel 80 mg/m^2 weekly 3 out of 4 weeks) and 45 mg in [5] (intermittent dosing (days 1–5 weekly for 3 out of 4 weeks)).

Consider `O=C(c1ccc(F)c(F)c1Nc1ccc(I)cc1F)N1CC(O)([C@@H]2CCCCN2)C1` [cobimetinib], for which the Partial responses in the data set with previously-treated mCRC is 17%.

In the case of `O=C1[O][Pt]2([NH][C@@H]3CCCC[C@H]3[NH]2)[O]C1=O` [Oxaliplatin], the “Oxaliplatin AUC, Avg STD” value in [6] (Cycle 1 (without binimetinib)) is given as 26580.5 4844.8 μg/L X hr; in data set [6] (Cycle 1 (without binimetinib), listed as oxaliplatin) it was 26580.5 ± 4844.8 μg/L X hr; in [6] (Cycle 2 (with binimetinib)), 32190.9 11861.2 μg/L X hr; in [6] (Cycle 2 (with binimetinib), listed as oxaliplatin), 32190.9 ± 11861.2 μg/L X hr. For the same compound, the “Oxaliplatin T1/2, Avg STD” value in [6] (Cycle 1 (without binimetinib)) is reported as 37.1 11.7 36; in [6] (Cycle 2 (with binimetinib)), 38.8 22.6 36. The “Oxaliplatin AUC” value in data set [6] (setting [7]) is on record as 28618.0 μg/L X hr; in [6] (setting [8]), 31146.9 μg/L X hr; in data set [6] (setting [9]), 51036.0 μg/L X hr; in [6] (setting [10]) it was 25757.7 μg/L X hr; in [6] (setting [11]) it was 33953.4 μg/L X hr; in [6] (setting [12]), 18615.5 μg/L X hr. The “Oxaliplatin AUC” value in data set [6] (setting [13]) is 25138.7 μg/L X hr; in data set [6] (setting [14]), 28764.2 μg/L X hr; in data set [6] (setting [15]), 19805.3 μg/L X hr; in [6] (setting [16]), 31020.9 μg/L X hr. Moreover, the “Oxaliplatin Cmax” value in [6] (setting [7]) came out at 536.0 µg/L; in data set [6] (setting [8]) it was 780.8 µg/L; in data set [6] (setting [9]), 590.0 µg/L; in data set [6] (setting [10]), 686.5 µg/L; in data set [6] (setting [11]), 726.5 µg/L; in [6] (setting [12]), 601.5 µg/L. Besides, the “Oxaliplatin Cmax” value in data set [6] (setting [13]) came to 748.5 µg/L; in data set [6] (setting [14]) it was 389.3 µg/L; in data set [6] (setting [15]) it was 583.5 µg/L; in [6] (setting [16]), 671.0 µg/L. The entries for the “Oxaliplatin average T1/2” value in data set [6] (with binimetinib) and in data set [6] (without binimetinib) were 38.8 ± 22.6 h and 37.1 ± 11.7 h, respectively.

Source of the values: paper PMC5668088, “A phase I clinical trial of binimetinib in combination with FOLFOX in patients with advanced metastatic colorectal cancer who failed prior standard therapy” (Oncotarget, 2017).
